Assay results as given in US8916599B2, “1H-benz imidazole-5-carboxamides as anti-inflammatory agents” (Orexo AB, priority 2008, dated 2014).

Molecular target: T1, recombinant human mPGES-1 (Homo sapiens, UniProt O14684)
T1 construct: made in house; host or cells: Rosetta E. coli (microsomal/membrane fraction)
T1 sequence (O14684 1-152): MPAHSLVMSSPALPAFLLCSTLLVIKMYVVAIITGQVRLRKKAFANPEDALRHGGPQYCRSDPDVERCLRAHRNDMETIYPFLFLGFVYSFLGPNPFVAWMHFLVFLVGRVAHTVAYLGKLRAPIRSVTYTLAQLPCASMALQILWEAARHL
Test: mPGES-1 inhibition test (microsomes, PGH2 substrate, HTRF detection of PGE2)
Assay type: biochemical
Conditions: for inhibition at 10 µM: inhibition of mPGES-1 at 10 μM; for inhibition at 1 µM: inhibition of mPGES-1 at 1 μM (marked in cell)
Description: Microsomes from Rosetta E. coli bacteria expressing recombinant human mPGES-1 is dissolved in 0.1 M KPi pH 7.4 buffer containing 2.5 mM GSH. 50 μl of the enzyme is subsequently dispensed in a 384-well plate. 0.5 μl of the inhibitor dissolved in DMSO at is thereafter added to each well and incubated for 25 minutes at room temperature. Subsequently, 2 μl of PGH2 dissolved in an appropriate solvent is added to each well and after one minute the acidified stop solution containing FeCl2 is added. 4 μl of the total volume is transferred to a separate plate and diluted 750-fold in two separate steps before HTRF detection of PGE2.
The HTRf detection is performed by the use of a commercially available kit from CisBio essentially according to the manufacturer's protocol. Briefly, 10 μl of the diluted sample is transferred to a white 384-well plate. 5 μl of d2 and 5 μl Eu3+-Cryptate labeled anti-PGE2 is added to each well containing samples by the use of a Multidrop. The plate is covered with a plastic self-adhesive film, centrifuged at 1200 rpm for 1 minute and subsequently stored at +4° C. over night.
After over night incubation the fluorescence is measured by the use of an appropriate microplate reader. The fluorescence of europium cryptate, and d2 are measured using the following excitation and emission wavelength, europium cryptate: λmax^ex=307 nm, λmax^em=620 nm and d2: λmax^ex=620 nm, λmax^em=665 nm), respectively. The extent of the specific FRET is measured as a ratio of the emission intensity at 665 nm vs. that at 620 nm. A standard curve using synthetic PGE2 is used to quantify the amount of PGE2 in unknown samples.

| Structure (SMILES) | inhibition at 10 µM [%] | inhibition at 1 µM [%] |
| --- | --- | --- |
| CN(C)c1cccc(Cl)c1Nc1nc2cc(C(=O)Nc3ccc(Br)cc3)ccc2n1C [Example 499, N-(4-Bromophenyl)-2-(2-chloro-6-(dimethylamino)phenylamino)-1-methyl-1H-benzimidazole-5-carboxamide] | 100 | – |
| COc1cc2c(cc1C(=O)N[C@H]1CC[C@H](C(F)(F)F)CC1)nc(Nc1c(Cl)ccc(C)c1F)n2C [Example 647, 2-(6-Chloro-2-fluoro-3-methyl-phenylamino)-6-methoxy-N-(trans-4-trifluoromethyl-cyclohex-1-yl)-1-methyl-1H-benzimidazole-5-carboxamide] | – | 97 |
| O=C(Nc1ccc(Br)c(F)c1)c1ccc2[nH]c(Nc3c(Cl)cccc3Cl)nc2c1 [Example 68, 2-(2,6-Dichloro-phenylamino)-1H-benzimidazole-5-carboxylic acid (4-bromo-3-fluoro-phenyl)-amide] | – | 100 |
| O=C(Nc1ccc(Br)cc1)c1ccc2[nH]c(Nc3c(Cl)cccc3OC(F)(F)F)nc2c1 [Example 557, N-(4-Bromophenyl)-2-(2-chloro-6-(trifluoromethoxy)phenylamino)-1H-benzimidazole-5-carboxamide] | 69 | – |
| CC(NC(=O)c1ccc2c(c1)nc(Nc1c(Cl)cccc1Cl)n2C)c1ccccn1 (stereo not drawn) [Example 242] | 70 | – |
| Cc1cccc(NC(=O)c2ccc3[nH]c(Nc4c(Cl)cccc4Cl)nc3c2)n1 [compound 336] | 85 | – |
| O=C(NC1CCCCC1)c1cc(Br)c2[nH]c(Nc3c(Cl)cccc3Cl)nc2c1 [Example 514, 7-Bromo-N-cyclohexyl-2-(2,6-dichlorophenylamino)-1H-benzimidazole-5-carboxamide] | 95 | – |
| O=C(Nc1ccc(Br)cc1)c1ccc2[nH]c(Nc3ccccc3Br)nc2c1 [Example 279, 2-(2-Bromo-phenylamino)-1H-benzimidazole-5-carboxylic acid (4-bromo-phenyl)-amide] | 97 | – |
| CC(C)Oc1cc2c(cc1C(=O)NC1CCC3(CC1)CC3)nc(Nc1c(Cl)ccc(Cl)c1F)n2C [Example 648, 2-(3,6-Dichloro-2-fluoro-phenylamino)-6-isopropoxy-N-(spiro[2.5]oct-6-yl)-1-methyl-1H-benzimidazole-5-carboxamide] | – | 100 |
| O=C(NCCc1ccncc1)c1ccc2[nH]c(Nc3c(Cl)cccc3Cl)nc2c1 [Example 233, 2-(2,6-Dichloro-phenylamino)-1H-benzimidazole-5-carboxylic acid (2-pyridin-4-yl-ethyl)-amide] | 67 | – |
| O=C(Nc1cccc(Cl)c1)c1cc2nc(Nc3c(Cl)cccc3Cl)[nH]c2cc1Cl [Example 56, 2-(2,6-Dichloro-phenylamino)-6-chloro-1H-benzimidazol-5-carboxylic acid (3-chloro-phenyl)-amide] | 100 | – |
| Cc1cccnc1CNC(=O)c1cc2nc(Nc3c(Cl)cccc3Cl)n(C)c2cc1F [Example 510, 2-(2,6-Dichlorophenylamino)-6-fluoro-1-methyl-N-((3-methylpyridin-2-yl)methyl)-1H-benzimidazole-5-carboxamide] | 99 | – |
| O=C(Nc1ccc(Br)cn1)c1ccc2nc(Nc3c(F)cccc3Cl)[nH]c2c1 [Example 192, 2-(2-Chloro-6-fluoro-phenylamino)-3H-benzimidazole-5-carboxylic acid (5-bromo-pyridin-2-yl)-amide] | 100 | – |
| O=C(Nc1cccc(Cl)c1)c1cc2[nH]c(Nc3c(Cl)cccc3Cl)nc2cc1F [Example 143, 2-(2,6-Dichloro-phenylamino)-6-fluoro-3H-benzimidazole-5-carboxylic acid (3-chloro-phenyl)-amide] | 100 | – |
| COCCn1c(Nc2c(Cl)cccc2Cl)nc2cc(C(=O)Nc3cccc(Cl)c3)ccc21 [Example 181, 2-(2,6-Dichloro-phenylamino)-1-(2-methoxy-ethyl)-1H-benzimidazole-5-carboxylic acid (3-chloro-phenyl)-amide] | 100 | – |
